Results reported in US11633414B2, “Nicotinoyl riboside compositions and methods of use” (Cornell University, priority 2005, dated 2023).
Entries after “also recorded” stand apart in the source; their conditions may differ. Where two headings read alike, the source gives them in different places.

What was measured:
[1] = tested on: Mouse embryonic stem cells; test: Increase of cellular NAD+ levels in cells grown on nicotinamide riboside (NAR) enriched medium; format: cell-based
Experimental: Mouse embryonic stem cells were plated onto cell culture flasks (250 mL, 75 cm^2) and grown to 50% confluence in 48 hours after passage. At 48 hours 2 flasks were set aside as controls and 2 flasks were used to determine effect of NAR on NAD+ biosynthesis. Cells were treated with 1M HClO4, and a specific amount of 180-NAM ([…]) and ^18O-NAD+. Samples were fractionated by HPLC and the fractions containing NAM and NAD+ were analyzed by ESI-MS and MALDI-MS respectively. Peak ratio (^16O/^18O) was used to quantitate NAM and NAD+ amounts in each sample. […] According to our measurement, the NAD+ level in NAR treated cells is 3886.6 pmoL/mg cell protein and nucleic acid content, and the NAD+ in control cells is only 1782.2 pmoL/mg cell protein and nucleic acid content. Cell protein and nucleic acid content were measured separately (see FIG. 3).

[2] = tested on: Mouse embryonic stem cells; test: Effect of NAR on mms mediated cell death (trypan blue counting); format: cell-based; conditions: media supplemented with NAR 1 mM, mms 1 mM (FIG. 2)
Experimental: 1000 units/mL], named from #1 to #7. […] Mms (200 mM) was added to flask #2, 3, 4, 5, 6, 7 to make final concentration as 1 mM. Cell flask #1 is kept as a control, and used for passage. After 3 hrs incubation, fresh media was changed for flask #4, 5, 6, 7. And Cell #2, and 3 are harvested. After 6 hrs treatment of mms, Cell #4, 5 are harvested. And Cell #6, 7 are harvested at 9 hrs treatment of mms. The harvest cells (living ones) are counted for the percentage of death with trypan blue (see FIG. 2).

[3] = tested on: Mouse embryonic stem cells; test: Cell survival after mms treatment and passage with/without NAR (haemocytometry); format: cell-based; conditions: mms 1 mM 3 hrs, NAR 1 mM, counted after two days
Experimental: Mms (200 mM) was added to both flask #A and #B to make final concentration as 1 mM. After 3 hrs incubation, each cell culture (with/without NR treated) is passed to two new flasks with/without 1 mM of NAR. After two days incubation, count the culture survival in each of these 4 new flasks: mms/control media, mms/NAR media; mms+NAR/control media; mms+NAR/NAR media. It was found after mms treatment, the cultured cells are seriously damaged and only have a very low survival after passage. […] Cell counting by haemocytometry was used to determine survival versus cell number (see FIG. 4).

[4] = tested on: Mouse embryonic stem cells; test: Effects of statins on cell viability and mitigation of toxicity by nicotinamide riboside (cell counting and MTT assay); conditions: for IC50: read-out: IC50 for statins in the absence of NR, apparently 7 days
Hela cells = test: NAD+ content in cells after treatment with nicotinate riboside derivatives (HPLC, MALDI-MS with 18O-NAD+ standard); format: cell-based; conditions: for 16O-NAD+ / [NAD+]/10^6 cell: 24 hrs; for [NAD+]/10^6 cell: control 618
Experimental: Synthesized compounds (NAR: Nicotinic acid riboside, O-ethyl-NR: ethyl-nicotinate riboside, Intermediate: TAENR, triacetyl-ethyl-nicotinate riboside, See FIG. 10) were added to the cells separately after 24 hours (no compound added for control). The cells were then incubated for another 24 hrs before harvest. Cells were trypsinized and an aliquot removed for counting. […] After mixing thoroughly, samples were pelleted and then neutralized with NaOH to make pH=7˜8. Samples were then centrifuged for 3 minutes and the supernatant (100 uL) was injected onto a C-18 column (Hitachi HPLC L2130 pump L2450 diode array detector) and separated to isolate the peak containing NAD+. The elution was collected during the NAD+ peak and the solution frozen and lyophilized.

[5] = format: physicochemical
Experimental: The synthesis of nicotinoyl riboside compounds was initiated with the preparation of a preferred intermediate, ethyl 1-[3,4-diacetyloxy-5-(acetyloxymethyl)oxolan-2-yl]-pyridine-3-carboxylate. Nicotinic acid riboside O-alkyl derivatives were prepared from there. Refluxing of the protected sugar, 1,2,3,5-tetra-O-acetyl-β-D-ribofuranose with ethyl nicotinate (1.2 equiv.) in methylene chloride under the catalysis of TMSOTf (1 equiv.) stereoselectively formed β-isomer in good yield (>90%). One of the advantages for this method is that there is no need to go through the silylation of nicotinamide. After evaporation of the solvent, ethyl 1-[3,4-diacetyloxy-5-(acetyloxymethyl)oxolan-2-yl]-pyridine-3-carboxylate could be used directly for the next step. […] Extraction of ethyl acetate from water layer could get rid of most non-polar side products and give 95% of pure products according to TLC. Ethyl 1-[3,4-diacetyloxy-5-(acetyloxymethyl)oxolan-2-yl]-pyridine-3-carboxylate was also treated with NaOCH3/MeOH at −20° C. to form O-methyl nicotinate riboside. Other O-alkyl nicotinate ribosides were prepared similarly. O-Alkyl nicotinate ribosides can be hydrolyzed with esterase (from porcine liver, sigma) at pH=7.0 to afford clean nicotinic acid riboside. Reverse HPLC was used to detect and purify products.

Structure (SMILES): NC(=O)c1ccc[n+]([C@@H]2O[C@H](CO)C(O)C2O)c1 (stereo partly drawn) [NAR, β-nicotinamide riboside]
- NAD+ level ([1]; NAR treated cells, control cells 1782.2): 3886.6 pmoL/mg cell protein and nucleic acid content
- NAD+ concentration compared to the controls ([1]; NAR treated embryonic stem cells vs controls): higher concentration of NAD+; also recorded: increase of intracellular levels of nicotinamide adenine dinucleotide (NAD+)
- cell survival [2]: improvement of cell survival
- culture survival after passage [3]: highest culture numbers
- mitigation of statin toxicity ([4]; NR 500 μM in cell media, lovastatin, 2, 4 and 7 days, listed as NR): significantly reduces the toxicity of statin; also recorded: mitigates statin toxicity in a significant way
- increase of IC50 of the statin in the presence of NR ([4]; NR 500 μM, after 4 and 7 days treatment): two to three
- cell viability in the NR treated group versus no NR ([4]; cell counting and MTT assay, at virtually every statin concentration): significantly higher
- viable cells at the highest statin concentration ([4]; statin 10 μM, NR treated group, cell counting and MTT assay): significant percentages of viable cells remain

Structure (SMILES): NC(=O)c1ccc[n+]([C@@H]2O[C@H](CO)[C@@H](O)[C@H]2O)c1 [NAR, β-nicotinamide riboside]
- 16O-NAD+ (Hela cells; 669 uM): 2201.2 pmol
- [NAD+]/10^6 cell (Hela cells; 669 uM): 1079 pmoL
- water solubility [5]: extremely water-soluble

Structure (SMILES): CCOC(=O)c1ccc[n+]([C@@H]2O[C@H](CO)[C@@H](O)[C@H]2O)c1 [O-ethyl NR, O-ethyl β-nicotinic riboside]
- 16O-NAD+ (Hela cells; 500 uM): 1084.1 pmol
- [NAD+]/10^6 cell (Hela cells; 500 uM): 1004 pmoL
- 16O-NAD+ (Hela cells; 803 uM): 2622.7 pmol
- [NAD+]/10^6 cell (Hela cells; 803 uM): 2242 pmoL
- increase over the control NAD+ content (Hela cells; 500 micromolar): 62%
- NAD+ concentration in cells (Hela cells; 500 micromolar, untreated cells 618): 1004 μmol per million cells
- increase in NAD+ concentration (Hela cells; 800 micromolar): approximately three

Structure (SMILES): CCOC(=O)c1ccc[n+]([C@@H]2O[C@H](COC(C)=O)C(OC(C)=O)[C@@H]2OC(C)=O)c1 (stereo partly shown) [TAENR, ethyl 1-[3,4-diacetyloxy-5-(acetyloxymethyl)oxolan-2-yl]-pyridine-3-carboxylate]
- 16O-NAD+ (Hela cells; 750 uM): 4432.2 pmol
- [NAD+]/10^6 cell (Hela cells; 750 uM): 2052 pmoL
- increase of NAD+ concentrations in cells (Hela cells; concentration of Table 3 (750 uM)): three

Structure (SMILES): O=C(O)c1ccc[n+]([C@@H]2O[C@H](CO)C(O)C2O)c1 (stereo partly drawn) [nicotinic acid riboside, β-Nicotinic acid riboside]
- increase of NAD+ concentrations in cells (Hela cells; concentrations of Table 3): 60%

Structure (SMILES): CC[C@H](C)C(=O)O[C@H]1C[C@@H](C)C=C2C=C[C@H](C)[C@H](CC[C@@H]3C[C@@H](O)CC(=O)O3)[C@H]21 [statin, lovastatin, reference compound]
- IC50 ([4]; determined by MTT assay): 216 nM
- IC50 ([4]; determined by cell counting): 248 nM
- cell viability at the highest statin concentration ([4]; statin 10 μM, no NR group): almost completely non-viable
